Experimental data taken from patent US10139394B2, “Method for controlling cancer metastasis or cancer cell migration by modulating the cellular level of lysyl tRNA synthetase” (Medicinal Bioconvergence Research Center, priority 2008, dated 2018).

Key:
[1] = system: A549 cells; test: Cell migration assay in Transwell chamber; assay type: cell-based; details: purified KRS at different concentration in lower chamber, 6 hr, FIG. 25
Method: In FIG. 18, A549 cells were transfected with the indicated plasmids, incubated in the absence and presence of laminin and their effect on cell migration was determined by measuring the migrated cells in transwell chamber as described. The numbers of the cells passed through the membrane were counted and shown in each panel. The experiments were performed three times. In FIG. 19, the cells treated as above were used to determine MMP-2 activity and level by zymography and Western blotting, respectively. In FIG. 20, Breast carcinoma 4T-1 cells were transfected with the indicated siRNA and subcutaneously injected to the back of Balb/C mice. After 21 days, mouse lungs were isolated and tumor nodules over 1 mm in diameter were counted. In FIG. 21, two different 4T-1 cells stably expressing exogenously introduced KRS (KRS-1 and -2) were also inoculated as above and the tumor nodules were counted 30 days after injection. […]
FIGS. 24 to 27 show effect of intracellular and extracellular KRS on cell migration, protein synthesis and cell cycle. In FIG. 24, Migration of A549 cells incubated in the absence of laminin was determined was determined by measuring the migrated cells in Transwell chamber. […] After 6 hr of incubation, the migrant were counted. […] In FIG. 27, A549 cells transfected as indicated were fixed and stained with propidium iodide, and their cell cycle was determined by flow cytometry. […]

[2] = system: membrane translocation of KRS; test: Laminin-dependent membrane translocation of KRS and 67LR, cell fractionation and Western blotting; assay type: cell-based; details: A549 cells; inhibitor for 3 hr, then laminin for 1 hr; FIG. 9 upper
Method: (§1) In FIG. 7, A549 cells were treated with laminin (10 ug/ml) and the level of 67LR, 37LRP and KRS was determined by Western blotting at the indicated times. Hsp90 and Cadherin were used as markers for cytoplasm and membrane, respectively. In FIG. 8, A549 cells untreated or treated with laminin for 1 h were subjected to immunofluorescence staining with anti-67LR (MLuC5, Santacruz, sc-59732) (red) and -KRS antibodies (green). In FIG. 9, A549 cells were treated with U73122 (U), staurosporin (ST) and LY294002 (LY) that inhibit PLC-gamma, PKC and PI3K, respectively, for 3 hr, then with laminin for 1 hr and checked how these kinase inhibitors would affect the membrane and cytoplasmic level of 67LR and KRS. In FIG. 10, A549 cells were transfected with Myc-KRS and incubated for 24 h. The cells were treated with the indicated chemicals and then with laminin as above. Myc-KRS was immunoprecipitated, and immunoblotted with anti-p-Thr, -Ser, and -Tyr antibodies. In FIG. 11, A549 cells were transfected with Myc-KRS and cultivated for 24 hr. The transfectants were pre-treated with LY294002 for 3 hr and then treated with laminin for 1 h. Myc-KRS was immunoprecipitated and co-precipitation of 67LR was determined by Western blotting. IgG was used as a control for immunoprecipitation. In FIG. 12, A549 cells were cultivated in the absence and presence of laminin and LY294002 as indicated. EPRS (glutamyl-prolyl-tRNA synthetase) was immunoprecipitated with its specific antibody (AbCam), and co-immunoprecipitation of KRS was determined by Western blotting (upper). The immune-depleted supernatant (ID) were subjected to Western blottingting with anti-KRS and -EPRS antibodies.
The cells were lysed with 20 mM Tris-HCl (pH 7.4) buffer containing 150 mM NaCl, 0.5% TritonX-100, 0.1% SDS, and protease inhibitor. The protein extracts were incubated with normal IgG and protein G agarose for 2 hr and then centrifuged to remove nonspecific IgG binding proteins. […]

[3] = system: phosphorylation of KRS; test: Laminin-induced phosphorylation of Myc-KRS, immunoprecipitation and immunoblot with anti-p-Thr, -Ser, -Tyr antibodies; assay type: cell-based, human; details: Myc-KRS transfected A549 cells; FIG. 10
Method: as §1, with “IgG was used as a control for immunoprecipitation. In FIG. 12, A549 cells were cultivated in the absence and presence of laminin and LY294002 as indicated.” left out, “The immune-depleted supernatant (ID) were subjected to Western blottingting with anti-KRS and -EPRS antibodies.” left out

For “purified KRS: purified human lysyl-tRNA synthetase protein added extracellularly”, the “cell migration (chemotactic activity of extracellular KRS)” value [1] was “little affected”.

With `CN[C@@H]1C[C@H]2O[C@@](C)([C@@H]1OC)n1c3ccccc3c3c4c(c5c6ccccc6n2c5c31)C(=O)NC4` [staurosporin, reference compound] the “Laminin-dependent increase of KRS and 67LR in the membrane fraction” value [2] was “still showed laminin-dependent induction of 67LRS” and the “laminin-induced phosphorylated KRS at threonine and serine in presence of inhibitor” value [3] was “did not give any effect”.

With `COc1ccc2c(c1)CC[C@@H]1[C@@H]2CC[C@]2(C)[C@@H](NCCCCCCN3C(=O)C=CC3=O)CC[C@@H]12` [U73122] the “Laminin-dependent increase of KRS and 67LR in the membrane fraction” value [2] was “still showed laminin-dependent induction of 67LRS”.
